From patent publication US9708314B2, “Heterocyclic amide compound” (NISSAN CHEMICAL INDUSTRIES, LTD., priority 2013, dated 2017)

How the values were obtained:
Assay type in all cases: in vivo
[1] = system: transplanted Oryza sativa; assay: Test Example 1: effect on crop, application before weed generation in submerged conditions; settings: Application herbicide amount 320 g/ha; Seventeenth Table
Description: [Test Example 1] Herbicidal Activity Test by Application Before Weed Generation in Submerged Conditions After alluvial soil was placed into 1/10000 are of Wagner pot, water was poured and mixed to form a submerged condition having a water depth of 4 cm. Seeds of Echinochloa oryzacola Vasing., Scirpus juncoides, and Monochoria vaginalis were sowed in a mixed manner in the above pot and thereafter 2.5 leaf stage Oryza sativa seedling was transplanted. On the day of sowing seeds, the emulsion agent containing the compound of the present invention prepared in accordance with Formulation Example 2 was diluted with water so as to be a predetermined herbicide amount and the diluted compound was applied to the surface of the water. The pot was placed in a greenhouse of 25° C. to 30° C. to grow plant. Three weeks after the herbicide application, effects on each plant were investigated in accordance with the following criteria. Criteria 5 Herbicidal ratio of 90% or more (almost completely withered) 4 Herbicidal ratio of 70% or more and less than 90% 3 Herbicidal ratio of 40% or more and less than 70% 2 Herbicidal ratio of 20% or more and less than 40% 1 Herbicidal ratio of 5% or more and less than 20% 0 Herbicidal ratio of 5% or less (almost no effect) A: Echinochloa oryzicola Vasing., B: Scirpus juncoides, C: Monochoria vaginalis, D: Leptochloa chinensis, E: Cyperus difformis, F: Digitaria ciliaris, G: Setaria viridis, H: Echinochloa crus-galli var. crus-galli, I: Avena fatua, J: Alopecurus myosuroides, K: Lolium multiflorum Lam., L: Apera spica-venti., M: Abutilon theophrasti, N: Amaranthus retroflexus, O: Chenopodium album, P: Stellaria media, Q: Galium spurium, R: Veronica persica, a: transplanted Oryza sativa, b: directly sowed Oryza sativa, c: Zea mays, d: Glycine max, e: Triticum aestivum, f: Beta vulgaris ssp. vulgaris, and g: Brassica campestris L. The application herbicide amount (g/ha) means an amount that a concentration is adjusted so that, when an application amount is converted into per hectare (1 ha), the herbicide is applied by the number of grams (g) of the described value.

[2] = system: Amaranthus retroflexus; assay: Test Example 4: herbicidal effect by application to foliage (diluvial soil, plastic box); settings: application to foliage, application herbicide amount 320 g/ha
Outline: (§1)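 Plants were grown in sterilized diluvial soil in a greenhouse at 25-30° C for 14 days, then sprayed on stems and leaves with water-diluted emulsion formulation at set rates in g/ha. Weed control and crop injury were scored 3 weeks after treatment on a 0-5 herbicidal-ratio scale, from 0 (≤5%) to 5 (≥90%).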

[3] = system: Stellaria media; assay: as above; settings: application to foliage, application herbicide amount 320 g/ha
Outline: as §1

Compound	a: transplanted Oryza sativa (effect on crop grade) [1]	N (Amaranthus retroflexus) herbicidal effect [2]	P (Stellaria media) herbicidal effect [3]
Cc1nnc(NC(=O)c2ccc(C(F)(F)F)n3cnnc23)o1 [1-001]	0 (Herbicidal ratio of 5% or less (almost no effect))	3 (Herbicidal ratio of 40% or more and less than 70%)	4 (Herbicidal ratio of 70% or more and less than 90%)
Cc1nnc(NC(=O)c2ccc(C(F)(F)F)n3c(C)nnc23)o1 [1-002]	0 (Herbicidal ratio of 5% or less (almost no effect))	3 (Herbicidal ratio of 40% or more and less than 70%)	5 (Herbicidal ratio of 90% or more (almost completely withered))
CCc1nnc(NC(=O)c2ccc(C(F)(F)F)n3c(C(C)C)nnc23)o1 [1-005]	0 (Herbicidal ratio of 5% or less (almost no effect))	3 (Herbicidal ratio of 40% or more and less than 70%)	1 (Herbicidal ratio of 5% or more and less than 20%)
Cc1nnc(NC(=O)c2ccc(C(F)(F)F)n3c(C4CC4)nnc23)o1 [1-010]	0 (Herbicidal ratio of 5% or less (almost no effect))	5 (Herbicidal ratio of 90% or more (almost completely withered))	5 (Herbicidal ratio of 90% or more (almost completely withered))
CCC(CC)c1nnc2c(C(=O)Nc3nnc(C)o3)ccc(C(F)(F)F)n12 [1-011]	1 (Herbicidal ratio of 5% or more and less than 20%)	5 (Herbicidal ratio of 90% or more (almost completely withered))	5 (Herbicidal ratio of 90% or more (almost completely withered))
Cc1nnc(NC(=O)c2ccc(C(F)(F)F)n3c(-c4ccccc4)nnc23)o1 [1-012]	0 (Herbicidal ratio of 5% or less (almost no effect))	3 (Herbicidal ratio of 40% or more and less than 70%)	4 (Herbicidal ratio of 70% or more and less than 90%)
Cc1nnc(NC(=O)c2ccc(C(F)(F)F)n3c(Br)nnc23)o1 [1-014]	0 (Herbicidal ratio of 5% or less (almost no effect))	5 (Herbicidal ratio of 90% or more (almost completely withered))	5 (Herbicidal ratio of 90% or more (almost completely withered))
COCc1nnc2c(C(=O)Nc3nnc(C)o3)ccc(C(F)(F)F)n12 [1-015]	0 (Herbicidal ratio of 5% or less (almost no effect))	5 (Herbicidal ratio of 90% or more (almost completely withered))	5 (Herbicidal ratio of 90% or more (almost completely withered))
COc1ccc(-c2nnc3c(C(=O)Nc4nnc(C)o4)ccc(C(F)(F)F)n23)cc1 [1-016]	0 (Herbicidal ratio of 5% or less (almost no effect))	5 (Herbicidal ratio of 90% or more (almost completely withered))	5 (Herbicidal ratio of 90% or more (almost completely withered))
Cc1nnc(NC(=O)c2ccc(C(F)(F)F)n3c(-c4ccc(Cl)cc4)nnc23)o1 [1-017]	0 (Herbicidal ratio of 5% or less (almost no effect))	5 (Herbicidal ratio of 90% or more (almost completely withered))	4 (Herbicidal ratio of 70% or more and less than 90%)
COCCOCc1nnc2c(C(=O)Nc3nnc(C)o3)ccc(C(F)(F)F)n12 [1-019]	2 (Herbicidal ratio of 20% or more and less than 40%)	5 (Herbicidal ratio of 90% or more (almost completely withered))	5 (Herbicidal ratio of 90% or more (almost completely withered))
Cc1nnc(NC(=O)c2ccc(C(F)(F)F)n3c(COCC(F)(F)F)nnc23)o1 [1-020]	0 (Herbicidal ratio of 5% or less (almost no effect))	4 (Herbicidal ratio of 70% or more and less than 90%)	4 (Herbicidal ratio of 70% or more and less than 90%)
CCC(C)c1nnc2c(C(=O)Nc3nnc(C)o3)ccc(C(F)(F)F)n12 (stereo not drawn) [1-021]	2 (Herbicidal ratio of 20% or more and less than 40%)	5 (Herbicidal ratio of 90% or more (almost completely withered))	5 (Herbicidal ratio of 90% or more (almost completely withered))
Cc1cc(-c2nnc3c(C(=O)Nc4nnc(C)o4)ccc(C(F)(F)F)n23)no1 [1-022]	0 (Herbicidal ratio of 5% or less (almost no effect))	5 (Herbicidal ratio of 90% or more (almost completely withered))	4 (Herbicidal ratio of 70% or more and less than 90%)
CCCc1nnc2c(C(=O)Nc3nnc(C)o3)ccc(C(F)(F)F)n12 [1-024]	0 (Herbicidal ratio of 5% or less (almost no effect))	5 (Herbicidal ratio of 90% or more (almost completely withered))	4 (Herbicidal ratio of 70% or more and less than 90%)
Cc1nnc(NC(=O)c2ccc(C(F)(F)F)n3c(C4CCCC4)nnc23)o1 [1-026]	2 (Herbicidal ratio of 20% or more and less than 40%)	4 (Herbicidal ratio of 70% or more and less than 90%)	5 (Herbicidal ratio of 90% or more (almost completely withered))
CCOCc1nnc2c(C(=O)Nc3nnc(C)o3)ccc(C(F)(F)F)n12 [1-027]	1 (Herbicidal ratio of 5% or more and less than 20%)	5 (Herbicidal ratio of 90% or more (almost completely withered))	5 (Herbicidal ratio of 90% or more (almost completely withered))
Cc1nnc(NC(=O)c2ccc(C(F)(F)F)n3c(C4=NOC(C)(C)C4)nnc23)o1 [1-029]	2 (Herbicidal ratio of 20% or more and less than 40%)	5 (Herbicidal ratio of 90% or more (almost completely withered))	5 (Herbicidal ratio of 90% or more (almost completely withered))
Cc1nnc(NC(=O)c2ccc(C(F)(F)F)n3c(CCS(C)(=O)=O)nnc23)o1 [1-085]	3 (Herbicidal ratio of 40% or more and less than 70%)	–	–
Cc1nnc(NC(=O)c2ccc(C(F)(F)F)n3c(N(C)c4ccccc4)nnc23)o1 [1-086]	5 (Herbicidal ratio of 90% or more (almost completely withered))	–	–
CCCSc1nnc2c(C(=O)Nc3nnc(C)o3)ccc(C(F)(F)F)n12 [1-087]	0 (Herbicidal ratio of 5% or less (almost no effect))	–	–
Cc1nnc(NC(=O)c2ccc(C(F)(F)F)n3c(NC(C)C)nnc23)o1 [1-090]	0 (Herbicidal ratio of 5% or less (almost no effect))	–	–
CC(C)Sc1nnc2c(C(=O)Nc3nnco3)ccc(C(F)(F)F)n12 [1-091]	0 (Herbicidal ratio of 5% or less (almost no effect))	–	–
CCC[S+]([O-])c1nnc2c(C(=O)Nc3nnc(C)o3)ccc(C(F)(F)F)n12 (stereo not drawn) [1-092]	3 (Herbicidal ratio of 40% or more and less than 70%)	–	–
Cc1nnc(NC(=O)c2ccc(C(F)(F)F)n3c(SCC(C)C)nnc23)o1 [1-093]	0 (Herbicidal ratio of 5% or less (almost no effect))	–	–
CCC(C)Sc1nnc2c(C(=O)Nc3nnc(C)o3)ccc(C(F)(F)F)n12 (stereo not drawn) [1-094]	0 (Herbicidal ratio of 5% or less (almost no effect))	–	–
Cc1nnc(NC(=O)c2ccc(C(F)(F)F)n3c(SC(C)(C)C)nnc23)o1 [1-095]	1 (Herbicidal ratio of 5% or more and less than 20%)	–	–
Cc1nnc(NC(=O)c2ccc(C(F)(F)F)n3c(N4CCOCC4)nnc23)o1 [1-096]	3 (Herbicidal ratio of 40% or more and less than 70%)	–	–
CC(C)c1nnc2c(C(=O)Nc3nnc(C(F)(F)F)o3)ccc(C(F)(F)F)n12 [1-100]	0 (Herbicidal ratio of 5% or less (almost no effect))	–	–
COc1cccc(Nc2nnc3c(C(=O)Nc4nnc(C)o4)ccc(C(F)(F)F)n23)n1 [1-102]	2 (Herbicidal ratio of 20% or more and less than 40%)	–	–
